Measured values reported in patent US20240000753A1, “METHODS AND COMPOSITIONS TO INCREASE LIFESPAN AND HEALTHSPAN BY MIMICKING THE EFFECTS OF TIME-RESTRICTED FEEDING” (The Trustees of Columbia University in the City of New York, priority 2020, published 2024).

Test system: Drosophila
Assay: Lifespan analysis of flies fed RU486
Assay type: in vivo
Details: flies lacking UAS-RNAi transgenes; RU486 fed from day 5 post-eclosion until death (FIG. 5K)
Procedure: All drugs were supplemented into cooled (65° C.) liquid adult medium (containing 3% yeast extract) following preparation to the following final concentration(s): RU486 (Cayman Chemical) was dissolved in ethanol was supplemented into medium after day 5 of eclosion at a final concentration of 100 μg/mL (with the exception of daGS>UAS-atg1 and controls, 0.5 μg/mL) vehicle controls were supplemented with same volume of ethanol alone. Timed RU486 feeding of daGS>UAS-atg1 consisted of flies being fed 0.5 μg/mL in standard adult media or fasting media only during the fasting phase, then flipped to vehicle control food the following morning only from days 10-40 of adulthood. Vehicle only controls were flipped at the same time for consistency. For gut microbe clearance, the medium contained 500 μg/mL ampicillin, 50 μg/mL tetracycline, and 200 μg/mL rifamycin in 50% ethanol. Same volume of 50% ethanol alone was used as the vehicle control. Drosophila were reared from embryos in low-density bottles with standard yeast cornmeal-agar media listed above (Archon Scientific) Newly eclosed flies (˜24 hours) were collected onto adult medium w/3% yeast extract and allowed to mate for 48 hours. […] Death was scored at time of flipping, and lifespan compared by log-rank analysis.

CC#C[C@]1(O)CC[C@H]2[C@@H]3CCC4=CC(=O)CCC4=C3[C@@H](c3ccc(N(C)C)cc3)C[C@@]21C [RU486]
effect on iTRF-mediated lifespan extension: no effect
